By MIC is commonly meant the lowest concentration found to suppress growth.

In brackets after ≈: the same amount, converted by molar mass.

Data on 18 molecules can be found in patent US10030047B2 (Hoffmann-La Roche Inc., priority 2015, dated 2018).

For this test, the system named is A. baumannii strain ATCC19606. The experiment in a line: Minimum inhibitory concentration (MIC) determination, microbroth dilution (CLSI). It is filed as cell-based. As to conditions: Acinetobacter baumannii; A. baumannii ATCC19606; CAMHB; read after 20 hours; >=80% growth inhibition; read-out: ATCC19606 MIC. A digest of the protocol:
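CLSI broth microdilution in cation-adjusted Mueller Hinton broth with twofold compound dilutions and ~5×10^5 CFU/ml inoculum, incubated at 35±2 °C. MIC read after 20 h as lowest concentration inhibiting ≥80% of growth, by eye and OD 600 nm.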
Turning to `CN1C(=O)[C@H](CCCCN)NC(=O)[C@H](CC(N)=O)NCc2cccnc2Sc2c(Cl)cc(Cl)cc2CNC(=O)[C@@H]1Cc1c[nH]c2ccccc12` [Example 127, 2-[(11S,14S,17S)-14-(4-Amino-butyl)-23,25-dichloro-17-(1H-indol-3-ylmethyl)-16-methyl-12,15,18-trioxo-2-thia-4,10,13,16,19-pentaaza-tricyclo[19.4.0.0*3,8*]pentacosa-1(25),3(8),4,6,21,23-hexaen-11-yl]-acetamide], the MIC amounted to 16 µg/mL (≈ 21.6 µM). The same measure for `CN1C(=O)[C@H](CCCCN)NC(=O)[C@H](CCCN)NCc2ccccc2Sc2c(cc(-c3ccccc3)cc2C(F)(F)F)CNC(=O)[C@@H]1Cc1c[nH]c2ccccc12` [Example 128, (12S,15,18S)-15-(4-Amino-butyl))-18-(3-amino-propyl)-12-(1H-indo-3-ylmethyl)-13-methyl-6-phenyl-4-trifluoromethyl-2-thia-10,13,16,19-tetraaza-tricyclo[19.4.0.0*3,8*]pentacosa-1(25),3,5,7,21,23-hexaene-11,14,17-trione]: 2 µg/mL (≈ 2.46 µM). For the molecule `CN1C(=O)[C@H](CCCCN)NC(=O)[C@H](CCCN)NCc2cccnc2Sc2c(Cl)ccc(-c3ccccc3)c2CNC(=O)[C@@H]1Cc1c[nH]c2ccccc12` [Example 129, (11S,14S,17S)-14-(4-Amino-butyl)-11-(3-amino-propyl)-25-chloro-17-(1H-indol-3-ylmethyl)-16-methyl-22-phenyl-2-thia-4,10,13,16,19-pentaaza-tricyclo[19.4.0.0*3,8*]pentacosa-1(25),3(8),4,6,21,23-hexaene-12,15,18-trione], the MIC is 0.25 µg/mL (≈ 0.32 µM). Consider `CN1C(=O)[C@H](CCCCN)NC(=O)[C@H](CCCN)NCc2cccnc2Sc2c(Cl)cc(N3CCCC3)cc2CNC(=O)[C@@H]1Cc1c[nH]c2ccccc12` [Example 130, (11S,14S,17S)-14-(4-Amino-butyl)-11-(3-amino-propyl)-25-chloro-17-(1H-indol-3-ylmethyl)-16-methyl-23-pyrrolidin-1-yl-2-thia-4,10,13,16,19-pentaaza-tricyclo[19.4.0.0*3,8*]pentacosa-1(25),3(8),4,6,21,23-hexaene-12,15,18-trione], for which the MIC was 1 µg/mL (≈ 1.29 µM). Regarding `CN1C(=O)[C@H](CCCCN)NC(=O)[C@H](CCCN)NCc2cccnc2Sc2c(Cl)ccc(C(F)(F)F)c2CNC(=O)[C@@H]1Cc1c[nH]c2ccc(F)cc12` [Example 131, (11S,14S,17S)-14-(4-Amino-butyl)-11-(3-amino-propyl)-25-chloro-17-(5-fluoro-1H-indol-3-ylmethyl)-16-methyl-22-trifluoromethyl-2-thia-4,10,13,16,19-pentaaza-tricyclo[19.4.0.0*3,8*]pentacosa-1(25),3,5,7,21,23-hexaene-12,15,18-trione], the MIC was determined as 0.25 µg/mL (≈ 0.316 µM). Regarding `COc1cc(-c2cc(Cl)c3c(c2)CNC(=O)[C@H](Cc2c[nH]c4ccccc24)N(C)C(=O)[C@H](CCCCN)NC(=O)[C@H](CCC(N)=O)NCc2cccnc2S3)ccn1` [Example 134, 3-[(11S,14S,17S)-14-(4-Amino-butyl)-25-chloro-17-(1H-indol-3-ylmethyl)-23-(2-methoxy-pyridin-4-yl)-16-methyl-12,15,18-trioxo-2-thia-4,10,13,16,19-pentaaza-tricyclo[19.4.0.0*3,8*]pentacosa-1 (25),3(8),4,6,21,23 exaen-11-yl]-propionamde], the MIC was 2 µg/mL (≈ 2.42 µM). Regarding `CN1C(=O)[C@H](CCCCN)NC(=O)[C@H](CCC(N)=O)NCc2cccnc2Sc2c(Cl)cc(N3CCOCC3)cc2CNC(=O)[C@@H]1Cc1c[nH]c2ccccc12` [Example 137, 3-[(11S,14S,17S)-14-(4-Amino-butyl)-25-chloro-17-(1H-indol-3-ylmethyl)-16-methyl-23-morpholin-4-yl-12,15,18-trioxo-2-thia-4,10,13,16,19-pentaaza-tricyclo[19.4.0.0*3,8*]pentacosa-1(25),3(8),4,6,21,23-hexaen-11-yl]-propionamide], the MIC was determined as 32 µg/mL (≈ 39.8 µM). The same measure for `CN1C(=O)[C@H](CCCCN)NC(=O)[C@H](CCCN)NCc2cccnc2Sc2c(Cl)cc(C3=CCOCC3)cc2CNC(=O)[C@@H]1Cc1c[nH]c2ccccc12` [Example 138, (11S,14S,17S)-14-(4-Amino-butyl)-11-(3-amino-propyl)-25-chloro-23-(3,6-dihydro-2H-pyran-4-yl)-17-(1H-indol-3-ylmethyl)-16-methyl-2-thia-4,10,13,16,19-pentaaza-tricyclo[19.4.0.0*3,8*]pentacosa-1(25),3(8),4,6,21,23-hexaene-12,15,18-trione]: 0.5 µg/mL (≈ 0.635 µM). For `CN1C(=O)[C@H](CCCCN)NC(=O)[C@H](CCCNC(=O)OCc2ccccc2)NCc2cccnc2Sc2c(Cl)ccc(Cl)c2CNC(=O)[C@@H]1Cc1c[nH]c2ccccc12` [Example 139, {3-[(11S,14S,17S)-14-(4-Amino-butyl)-22,25-dichloro-17-(1H-indol-3-ylmethyl)-16-methyl-12,15,18-trioxo-2-thia-4,10,13,16,19-pentaaza-tricyclo[19.4.0.0*3,8*]pentacosa-1(25),3(8),4,6,21,23-hexaen-11-yl]-propyarbamic acid benzyl ester], the MIC worked out at 2 µg/mL (≈ 2.29 µM). As for `CN1C(=O)[C@H](CCCCN)NC(=O)[C@H](CCCN)NCc2ccccc2Sc2c(Cl)cc(-c3ccn(C)n3)cc2CNC(=O)[C@@H]1Cc1c[nH]c2ccccc12` [Example 144, (12S,15S,18S)-15-(4-Amino-butyl)-18-(3-amino-propyl)-4-chloro-12-(1H-indol-3-ylmethyl)-13-methyl-6-(1-methyl-1H-pyrazol-3-yl)-2-thia-10,13,16,19-tetraaza-tricyclo[19.4.0.0*3,8*]pentacosa-1(25),3,5,7,21,23-hexaene-11,14,17-trione], the MIC turned out to be 1 µg/mL (≈ 1.27 µM).

As to `Cc1cc(-c2cc(Cl)c3c(c2)CNC(=O)[C@H](Cc2c[nH]c4ccccc24)N(C)C(=O)[C@H](CCCCN)NC(=O)[C@H](CCC(N)=O)NCc2cccnc2S3)ccn1` [Example 145, 3-[(11S,14S,17S)-14-(4-Amino-butyl)-25-chloro-17-(1H-indol-3-ylmethyl)-16-methyl-23-(2-methyl-pyridin-4-yl)-12,15,18-trioxo-2-thia-4,10,13,16,19-pentaaza-tricyclo[19.4.0.0*3,8*]pentacosa-1(25),3(8),4,6,21,23-hexaen-1l-yl]-propionamide], the MIC came to 4 µg/mL (≈ 4.94 µM). `CN1C(=O)[C@H](CCCCN)NC(=O)[C@H](CCCN)NCc2cccnc2Sc2c(Cl)cc(-c3cnccn3)cc2CNC(=O)[C@@H]1Cc1c[nH]c2ccccc12` [Example 146, (11S,14S,17S)-14-(4-Amino-butyl)-11-(3-amino-propyl)-25-chloro-17-(1H-indol-3-ylmethyl)-16-methyl-23-pyrazin-2-yl-2-thia-4,10,13,16,19-pentaaza-tricyclo[19.4.0.0*3,8*]pentacosa-1(25),3(8),4,6,21,23-hexaene-12,15,18-trione]: the MIC turned out to be 1 µg/mL (≈ 1.28 µM). In the case of `CN1C(=O)[C@H](CCCCN)NC(=O)[C@H](CCCN)NCc2cccnc2Sc2c(Cl)ccc(N3CCOCC3)c2CNC(=O)[C@@H]1Cc1c[nH]c2ccccc12` [Example 147, (11S,14S,17S)-14-(4-Amino-butyl)-11-(3-amino-propyl)-25-chloro-17-(1H-indol-3-ylmethyl)-16-methyl-22-morpholin-4-yl-2-thia-4,10,13,16,19-pentaaza-tricyclo[19.4.0.0*3,8*]pentacosa-1(25),3(8),4,6,21,23-hexaene-12,15,18-trione], the MIC is 0.12 µg/mL (≈ 0.152 µM).

`CN1C(=O)[C@H](CCCCN)NC(=O)[C@H](CCCN)NCc2cccnc2Sc2c(Cl)cc(-c3ccnnc3)cc2CNC(=O)[C@@H]1Cc1c[nH]c2ccccc12` [Example 148, (11S,14S,17S)-14-(4-Amino-butyl)-11-(3-amino-propyl)-25-chloro-17-(1H-indol-3-ylmethyl)-16-methyl-23-pyridazin-4-yl-2-thia-4,10,13,16,19-pentaaza-tricyclo[19.4.0.0*3,8*]pentacosa-1(25),3(8),4,6,21,23-hexaene-12,15,18-trione]: the MIC worked out at 8 µg/mL (≈ 10.2 µM).

Take `CN1C(=O)[C@H](CCCCN)NC(=O)[C@H](CCCN)NCc2cccnc2Sc2c(Cl)cc(-c3ccccc3)cc2CNC(=O)[C@@H]1Cc1c[nH]c2ccccc12` [Example 149]: the MIC was 1 µg/mL (≈ 1.28 µM). Take `CN1C(=O)[C@H](CCCCN)NC(=O)[C@H](CCCN)NCc2cccnc2Sc2c(Cl)cc(-c3ccccn3)cc2CNC(=O)[C@@H]1Cc1c[nH]c2ccccc12` [Example 150, (11S,14S,17S)-14-(4-Amino-butyl)-11-(3-amino-propyl)-25-chloro-17-(1H-indol-3-ylmethyl)-16-methyl-23-pyridin-2-yl-2-thia-4,10,13,16,19-pentaaza-tricyclo[19.4.0.0*3,8*]pentacosa-1(25),3(8),4,6,21,23-hexaene-12,15-18-trione]: the minimum inhibitory concentration (MIC) was 1 µg/mL (≈ 1.28 µM). For `CN1C(=O)[C@H](CCCCN)NC(=O)[C@H](CCCN)NCc2ccccc2Sc2c(Cl)cc(-c3cn(C)cn3)cc2CNC(=O)[C@@H]1Cc1c[nH]c2ccccc12` [Example 154, (12S,15S,18S)-15-(4-Amino-butyl)-18-(3-amino-propyl)-4-chloro-12-(1H-indol-3-ylmethyl)-13-methyl-6-(1-methyl-1H-imidazol-4-yl)-2-thia-10,13,16,19-tetraaza-tricyclo[19.4.0.0*3,8*]pentacosa-1(25),3,5,7,21,23-hexaene-11,14,17-trione], the MIC is 2 µg/mL (≈ 2.55 µM).

As for `CN1C(=O)[C@H](CCCCN)NC(=O)[C@H](CCCN)NCc2cnccc2Sc2c(Cl)cc(C(F)(F)F)cc2CNC(=O)[C@@H]1Cc1c[nH]c2ccccc12` [Example 156, (7S,10S,13S)— 13-((1H-Indol-3-yl)methyl)-10-(4-aminobutyl)-7-(3-aminopropyl)-20-chloro-12-methyl-18-(trifluoromethyl)-6,7,9,10,12,13,15,16-octahydrobenzo[b]pyrido[3,4-p][1,5,8,11,14]thiatetraazacycloheptadecine-8,11,14(5H)-trione], the MIC was determined as 1 µg/mL (≈ 1.29 µM).
